Test results taken from patent publication EP2196204A1 (priority 2007, dated 2009).

Test system: DU-145
Type: cell-based, human

Molecule `CC(=O)O[C@H]1C(=O)[C@@]2(C)[C@H]([C@H](OC(=O)c3ccccc3)[C@]3(O)C[C@H](OC(=O)[C@H](O)[C@@H](NC(=O)c4ccccc4)c4ccccc4)C(C)=C1C3(C)C)[C@]1(OC(C)=O)CO[C@@H]1C[C@@H]2O` [Taxol] has a Cell survival rate of 63.88%.
